The text below walks through data of patent US7371748B2, “Benzothiazole derivatives” (Hoffman-La Roche Inc., priority 2003, dated 2008).

In series [1] the target is T1, human adenosine A2A receptor (Homo sapiens, UniProt P29274).
T1 construct: expressed in transfected cells; host or cells: CHO cells, Semliki Forest virus expression system; membrane preparation
Kind of series: [3H]-SCH-58261 binding assay, human adenosine A2A receptor. Conditions: human A2A receptor recombinantly expressed in CHO cell membranes; [3H]-SCH-58261 1 nM; Ki from IC50 by Cheng-Prussoff equation; read-out: Ha2 (pKi) (converted). The procedure:
Human Adenosine A2A Receptor
The human adenosine A2A receptor was recombinantly expressed in chinese hamster ovary (CHO) cells using the semliki forest virus expression system. Cells were harvested, washed twice by centrifugation, homogenized and again washed by centrifugation. The final washed membrane pellet was suspended in a Tris (50 mM) buffer containing 120 mM NaCl, 5 mM KCl, 2 mM CaCl2 and 10 mM MgCl2 (pH 7.4) (buffer A). The [^3H]-SCH-58261 (Dionisotti et al., […], Br J Pharmacol 121, 353; 1 nM) binding assay was carried out in 96-well plates in the presence of 2.5 μg of membrane protein, 0.5 mg of Ysi-poly-1-lysine SPA beads and 0.1 U adenosine deaminase in a final volume of 200 μl of buffer A. Non-specific binding was defined using xanthine amine congener (XAC; 2 μM). Compounds were tested at 10 concentrations from 10 μM-0.3 nM. All assays were conducted in duplicate and repeated at least two times. Assay plates were incubated for 1 hour at room temperature before centrifugation and then bound ligand determined using a Packard Topcount scintillation counter. IC50 values were calculated using a non-linear curve fitting program and Ki values calculated using the Cheng-Prussoff equation.

T1 sequence (P29274 whole entry): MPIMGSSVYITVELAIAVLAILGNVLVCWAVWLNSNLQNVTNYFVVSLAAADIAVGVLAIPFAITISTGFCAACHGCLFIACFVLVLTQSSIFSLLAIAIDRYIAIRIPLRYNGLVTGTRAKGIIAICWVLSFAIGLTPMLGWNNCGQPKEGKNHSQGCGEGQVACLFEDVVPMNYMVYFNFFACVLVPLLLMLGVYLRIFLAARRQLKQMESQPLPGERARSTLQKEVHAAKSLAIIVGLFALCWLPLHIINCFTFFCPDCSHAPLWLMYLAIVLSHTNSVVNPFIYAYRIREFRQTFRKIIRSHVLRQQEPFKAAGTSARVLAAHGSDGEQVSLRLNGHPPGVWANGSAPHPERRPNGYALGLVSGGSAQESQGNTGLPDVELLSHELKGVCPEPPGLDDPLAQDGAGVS

A word on the melting point: it is the temperature of the solid-liquid transition. Consider `COc1ccc(C2CCOCC2)c2sc(NC(=O)c3ccnc(CN4CCOCC4)c3)nc12` [Example 34, N-[4-Methoxy-7-(tetrahydro-pyran-4-yl)-benzothiazol-2-yl]-2-morpholin-4-ylmethyl-isonicotinamide], for which the melting point was in the range of 199 to 201 °C. Further, the Ki in series [1] is 2 nM.
On to `COCCNCc1cc(C(=O)Nc2nc3c(OC)ccc(C4CCOCC4)c3s2)ccn1` [Example 35, 2-[(2-Methoxy-ethylamino)-methyl]-N-[4-methoxy-7-(tetrahydro-pyran-4-yl)-benzothiazol-2-yl]-isonicotinamide], for which the melting point lay within 93 to 95 °C. In addition, the Ki in series [1] was 1.58 nM.
In the case of `COc1ccc(C2CCOCC2)c2sc(NC(=O)C[C@H]3CC[C@H](O)CC3)nc12` [Example 50, (trans)-2-(4-Hydroxy-cyclohexyl)-N-[4-methoxy-7-(tetrahydro-pyran-4-yl)-benzothiazol-2-yl]-acetamide], the melting point fell in the range of 120 to 145 °C. In addition, the Ki in series [1] is 2.51 nM.
Compound `COc1ccc(C2CCOCC2)c2sc(NC(=O)N3CCC(CO)CC3)nc12` [Example 52, 4-Hydroxymethyl-piperidine-1-carboxylic acid [4-methoxy-7-(tetrahydro-pyran-4-yl)-benzothiazol-2-yl]-amide] came in with a melting point of 202 to 203.5 °C. Also, the Ki in series [1] is 1 nM.
